Results from PubChem BioAssay (NCI).
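Following 48 hours of exposure in 96-well plates, responses at five concentrations were used to interpolate endpoints linearly. Here, GI50 denotes the concentration required for 50% inhibition of growth. TGI: total growth inhibition.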

Columns and labels:
Test in all cases: NCI tumour cell line growth inhibition, 48 h
[1] = tested on: MDA-MB-435
[2] = tested on: U251 CNS
[3] = tested on: SNB-75 CNS
[4] = tested on: UO-31 renal
[5] = tested on: KM12 colon
[6] = tested on: RPMI-8226 leukemia
[7] = tested on: SK-MEL-2 melanoma
[8] = tested on: HCT-15 colon
[9] = tested on: TK-10 renal
[10] = tested on: BT-549 breast
[11] = tested on: OVCAR-5 ovarian
[12] = tested on: SF-539 CNS
[13] = tested on: M14 melanoma
[14] = tested on: SN12C renal
[15] = tested on: CAKI-1 renal
[16] = tested on: MALME-3M melanoma
[17] = tested on: MDA-MB-468 breast
[18] = tested on: HL-60(TB) leukemia
[19] = tested on: HS 578T breast
[20] = tested on: SF-295 CNS
[21] = tested on: SW-620 colon
[22] = tested on: OVCAR-3 ovarian
[23] = tested on: SK-OV-3 ovarian
[24] = tested on: NCI-H460 lung
[25] = tested on: HOP-92 NSCLC
[26] = tested on: MOLT-4 leukemia
[27] = tested on: ACHN renal
[28] = tested on: RXF 393 renal
[29] = tested on: PC-3 prostate
[30] = tested on: DU-145 prostate
[31] = tested on: MCF7 breast
[32] = tested on: A549 NSCLC
[33] = tested on: EKVX NSCLC
[34] = tested on: MDA-MB-231 breast
[35] = tested on: SK-MEL-28 melanoma
[36] = tested on: HT29 colon
[37] = tested on: A498 renal
[38] = tested on: NCI-H23 lung
[39] = tested on: CCRF-CEM leukemia
[40] = tested on: SK-MEL-5 melanoma
[41] = tested on: NCI-H522 lung
[42] = tested on: 786-0 renal
[43] = tested on: NCI-H226 lung
[44] = tested on: IGROV1 ovarian
[45] = tested on: OVCAR-8 ovarian
[46] = tested on: HCT-116 colon
[47] = tested on: OVCAR-4 ovarian
[48] = tested on: SR leukemia
[49] = tested on: UACC-62 melanoma
[50] = tested on: T-47D breast
[51] = tested on: SF-268 CNS
[52] = tested on: K-562 leukemia
[53] = tested on: HCC-2998 colon
[54] = tested on: SNB-19 CNS
[55] = tested on: UACC-257 melanoma
[56] = tested on: COLO 205 colon
[57] = tested on: LOX IMVI melanoma
[58] = tested on: HOP-62 NSCLC

SMILES: O=C(/C=C/c1ccc(Cl)cc1)c1nc2ccccc2n1Cc1ccc(F)cc1
- GI50 [1]: 11.4 µM
- TGI [1]: 29.4 µM
- GI50 [2]: 10.3 µM
- TGI [2]: 25.2 µM
- GI50 [3]: 2900 nM
- TGI [3]: > 100 µM
- GI50 [4]: 9.9 µM
- TGI [4]: 22 µM
- GI50 [5]: 11.9 µM
- TGI [5]: 45.7 µM
- GI50 [6]: 4.59 µM
- TGI [6]: 53 µM
- GI50 [7]: 14.5 µM
- TGI [7]: 40.1 µM
- GI50 [8]: 7.86 µM
- TGI [8]: 23.4 µM
- GI50 [9]: 20 µM
- TGI [9]: 75.8 µM
- GI50 [10]: 11.8 µM
- TGI [10]: 30.4 µM
- GI50 [11]: 17.5 µM
- TGI [11]: 37.2 µM
- GI50 [12]: 14.1 µM
- TGI [12]: 27.9 µM
- GI50 [13]: 14.1 µM
- TGI [13]: 32 µM
- GI50 [14]: 18.7 µM
- TGI [14]: 70.9 µM
- GI50 [15]: 7.89 µM
- TGI [15]: 43 µM
- GI50 [16]: 15.2 µM
- TGI [16]: 34.3 µM
- GI50 [17]: 10.4 µM
- TGI [17]: 28 µM
- GI50 [18]: 9.53 µM
- TGI [18]: 47.1 µM
- GI50 [19]: 19.8 µM
- TGI [19]: > 100 µM
- GI50 [20]: 14.3 µM
- TGI [20]: 33.9 µM
- GI50 [21]: 8.58 µM
- TGI [21]: 28.6 µM
- GI50 [22]: 5.05 µM
- TGI [22]: 22.2 µM
- GI50 [23]: 41.2 µM
- TGI [23]: > 100 µM
- GI50 [24]: 11 µM
- TGI [24]: 28.4 µM
- GI50 [25]: 7.12 µM
- TGI [25]: 79.7 µM
- GI50 [26]: 4.15 µM
- TGI [26]: > 100 µM
- GI50 [27]: 17.7 µM
- TGI [27]: 51.4 µM
- GI50 [28]: 7.71 µM
- TGI [28]: 21.7 µM
- GI50 [29]: 14.3 µM
- TGI [29]: 58.5 µM
- GI50 [30]: 16.5 µM
- TGI [30]: 63.3 µM
- GI50 [31]: 3.76 µM
- TGI [31]: 76.4 µM
- GI50 [32]: 22.9 µM
- TGI [32]: > 100 µM
- GI50 [33]: 17.5 µM
- TGI [33]: 44.9 µM
- GI50 [34]: 16.4 µM
- TGI [34]: 42 µM
- GI50 [35]: 14.9 µM
- TGI [35]: 32.5 µM
- GI50 [36]: 13.1 µM
- TGI [36]: 31.5 µM
- GI50 [37]: > 100 µM
- TGI [37]: > 100 µM
- GI50 [38]: 14.4 µM
- TGI [38]: 36.8 µM
- GI50 [39]: 4.12 µM
- TGI [39]: > 100 µM
- GI50 [40]: 15.2 µM
- TGI [40]: 36.2 µM
- GI50 [41]: 13.7 µM
- TGI [41]: 31.4 µM
- GI50 [42]: 13.2 µM
- TGI [42]: 28.9 µM
- GI50 [43]: 20.8 µM
- TGI [43]: 62.1 µM
- GI50 [44]: 14.5 µM
- TGI [44]: 41.9 µM
- GI50 [45]: 13.9 µM
- TGI [45]: 42.5 µM
- GI50 [46]: 11.8 µM
- TGI [46]: 25.2 µM
- GI50 [47]: 23.4 µM
- TGI [47]: > 100 µM
- GI50 [48]: 5.12 µM
- TGI [48]: > 100 µM
- GI50 [49]: 13.2 µM
- TGI [49]: 30.5 µM
- GI50 [50]: 5.89 µM
- TGI [50]: 33.9 µM
- GI50 [51]: 19.2 µM
- TGI [51]: > 100 µM
- GI50 [52]: 6.18 µM
- TGI [52]: > 100 µM
- GI50 [53]: 14.7 µM
- TGI [53]: 28.5 µM
- GI50 [54]: 14.7 µM
- TGI [54]: 33 µM
- GI50 [55]: 19.5 µM
- TGI [55]: 86.8 µM
- GI50 [56]: 14.8 µM
- TGI [56]: 32.9 µM
- GI50 [57]: 4.97 µM
- TGI [57]: 18.1 µM
- GI50 [58]: 14.8 µM
- TGI [58]: 36.8 µM
